Experiments:
PIK3CG (human) = PIK3CG (human) (UniProt P48736); assay: Assessment of PIK3CG Kinase Activity
PIK3CD (Human) = PIK3CD (Human) (UniProt O00329); assay: Assessment of PIK3CD Kinase Activity
PIK3CB (Human) = PIK3CB (Human) (UniProt P42338); assay: Assessment of PIK3CB Kinase Activity
PIK3CA (human) = PIK3CA (human) (UniProt P42336); assay: Assessment of PIK3CA Kinase Activity
PIK3CA (human), sequence (P42336 whole entry, looked up): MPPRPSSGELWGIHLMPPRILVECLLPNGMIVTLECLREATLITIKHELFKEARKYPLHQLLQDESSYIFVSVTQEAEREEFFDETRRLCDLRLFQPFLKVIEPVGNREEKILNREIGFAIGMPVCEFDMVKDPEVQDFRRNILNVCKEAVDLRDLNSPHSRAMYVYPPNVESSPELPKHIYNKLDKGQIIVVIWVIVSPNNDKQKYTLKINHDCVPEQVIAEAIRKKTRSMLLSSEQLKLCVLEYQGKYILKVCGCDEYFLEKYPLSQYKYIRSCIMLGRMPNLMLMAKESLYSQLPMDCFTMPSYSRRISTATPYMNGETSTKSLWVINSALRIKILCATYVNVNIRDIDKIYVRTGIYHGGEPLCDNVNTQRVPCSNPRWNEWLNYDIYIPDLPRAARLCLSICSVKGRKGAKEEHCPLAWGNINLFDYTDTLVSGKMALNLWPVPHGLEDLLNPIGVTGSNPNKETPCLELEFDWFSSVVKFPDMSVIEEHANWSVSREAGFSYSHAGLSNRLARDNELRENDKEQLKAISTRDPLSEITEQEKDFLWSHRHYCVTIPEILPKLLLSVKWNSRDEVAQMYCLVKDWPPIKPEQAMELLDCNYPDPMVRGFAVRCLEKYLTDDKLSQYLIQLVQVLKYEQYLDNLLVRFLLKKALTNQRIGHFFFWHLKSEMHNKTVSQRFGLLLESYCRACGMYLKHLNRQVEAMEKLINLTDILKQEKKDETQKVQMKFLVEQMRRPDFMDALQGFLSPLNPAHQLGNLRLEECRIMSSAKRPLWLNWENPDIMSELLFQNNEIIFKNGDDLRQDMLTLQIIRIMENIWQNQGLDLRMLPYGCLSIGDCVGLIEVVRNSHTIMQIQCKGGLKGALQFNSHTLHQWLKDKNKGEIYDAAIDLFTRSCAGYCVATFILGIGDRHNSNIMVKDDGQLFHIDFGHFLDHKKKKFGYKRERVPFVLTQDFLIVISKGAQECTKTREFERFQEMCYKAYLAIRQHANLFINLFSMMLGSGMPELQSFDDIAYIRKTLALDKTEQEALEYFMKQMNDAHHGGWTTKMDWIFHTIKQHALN

PIK3CB (Human), sequence (P42338 whole entry, looked up): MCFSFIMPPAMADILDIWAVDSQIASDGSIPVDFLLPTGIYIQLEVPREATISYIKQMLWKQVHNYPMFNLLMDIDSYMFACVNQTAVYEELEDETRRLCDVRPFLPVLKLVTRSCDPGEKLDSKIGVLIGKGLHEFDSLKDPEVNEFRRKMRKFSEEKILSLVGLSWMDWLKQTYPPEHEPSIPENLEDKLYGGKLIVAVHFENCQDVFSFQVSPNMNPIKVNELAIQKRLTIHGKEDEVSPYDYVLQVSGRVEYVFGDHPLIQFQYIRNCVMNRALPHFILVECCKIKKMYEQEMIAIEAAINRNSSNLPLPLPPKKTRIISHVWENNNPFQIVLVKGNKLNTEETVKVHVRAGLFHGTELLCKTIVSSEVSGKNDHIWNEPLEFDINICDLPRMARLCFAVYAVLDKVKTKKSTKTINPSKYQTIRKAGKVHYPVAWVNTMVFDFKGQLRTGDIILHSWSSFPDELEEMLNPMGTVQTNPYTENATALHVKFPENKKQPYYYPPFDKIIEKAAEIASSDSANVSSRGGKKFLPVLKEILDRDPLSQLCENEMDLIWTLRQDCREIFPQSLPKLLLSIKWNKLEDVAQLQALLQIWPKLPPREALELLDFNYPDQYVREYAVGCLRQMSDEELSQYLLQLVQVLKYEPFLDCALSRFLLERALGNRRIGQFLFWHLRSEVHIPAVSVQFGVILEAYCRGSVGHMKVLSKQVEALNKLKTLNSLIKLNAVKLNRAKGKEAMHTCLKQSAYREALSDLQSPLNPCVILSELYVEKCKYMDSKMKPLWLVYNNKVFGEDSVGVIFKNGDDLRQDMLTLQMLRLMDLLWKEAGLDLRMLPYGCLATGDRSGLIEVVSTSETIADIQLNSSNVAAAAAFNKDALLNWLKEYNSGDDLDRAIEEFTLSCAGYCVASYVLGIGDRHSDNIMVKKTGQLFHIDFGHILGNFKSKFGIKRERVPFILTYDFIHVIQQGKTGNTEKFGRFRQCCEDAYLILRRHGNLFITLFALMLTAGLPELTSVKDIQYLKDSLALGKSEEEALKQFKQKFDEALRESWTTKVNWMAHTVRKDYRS
PIK3CG (human), sequence (P48736 whole entry, looked up): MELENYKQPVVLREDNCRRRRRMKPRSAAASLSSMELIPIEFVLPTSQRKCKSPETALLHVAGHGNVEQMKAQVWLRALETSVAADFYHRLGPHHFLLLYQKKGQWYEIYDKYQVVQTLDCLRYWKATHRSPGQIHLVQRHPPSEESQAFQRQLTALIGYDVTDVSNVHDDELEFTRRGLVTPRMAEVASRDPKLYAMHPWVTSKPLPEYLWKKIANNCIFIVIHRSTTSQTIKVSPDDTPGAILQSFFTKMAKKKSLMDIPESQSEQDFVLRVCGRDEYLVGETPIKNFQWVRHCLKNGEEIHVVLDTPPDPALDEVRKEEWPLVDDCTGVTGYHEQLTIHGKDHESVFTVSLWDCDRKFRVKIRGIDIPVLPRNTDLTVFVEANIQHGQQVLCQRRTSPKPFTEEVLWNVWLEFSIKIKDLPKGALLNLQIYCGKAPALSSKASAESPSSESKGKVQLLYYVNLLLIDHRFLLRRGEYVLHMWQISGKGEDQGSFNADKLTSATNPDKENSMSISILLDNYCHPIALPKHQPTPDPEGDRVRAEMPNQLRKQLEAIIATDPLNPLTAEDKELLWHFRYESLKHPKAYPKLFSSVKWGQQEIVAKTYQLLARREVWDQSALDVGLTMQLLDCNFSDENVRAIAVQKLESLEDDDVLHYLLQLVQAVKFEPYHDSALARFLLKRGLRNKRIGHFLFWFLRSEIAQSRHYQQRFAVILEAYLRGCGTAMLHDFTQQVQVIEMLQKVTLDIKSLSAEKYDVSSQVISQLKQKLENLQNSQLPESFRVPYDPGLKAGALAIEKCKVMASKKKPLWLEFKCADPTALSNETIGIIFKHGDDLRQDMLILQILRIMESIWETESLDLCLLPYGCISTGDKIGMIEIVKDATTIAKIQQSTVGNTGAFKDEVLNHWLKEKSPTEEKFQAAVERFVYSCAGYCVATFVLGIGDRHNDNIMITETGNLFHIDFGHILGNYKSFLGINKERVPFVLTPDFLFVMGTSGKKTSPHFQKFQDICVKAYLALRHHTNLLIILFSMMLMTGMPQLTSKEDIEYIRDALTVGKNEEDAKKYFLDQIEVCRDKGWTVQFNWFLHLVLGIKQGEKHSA
PIK3CD (Human), sequence (O00329 whole entry, looked up): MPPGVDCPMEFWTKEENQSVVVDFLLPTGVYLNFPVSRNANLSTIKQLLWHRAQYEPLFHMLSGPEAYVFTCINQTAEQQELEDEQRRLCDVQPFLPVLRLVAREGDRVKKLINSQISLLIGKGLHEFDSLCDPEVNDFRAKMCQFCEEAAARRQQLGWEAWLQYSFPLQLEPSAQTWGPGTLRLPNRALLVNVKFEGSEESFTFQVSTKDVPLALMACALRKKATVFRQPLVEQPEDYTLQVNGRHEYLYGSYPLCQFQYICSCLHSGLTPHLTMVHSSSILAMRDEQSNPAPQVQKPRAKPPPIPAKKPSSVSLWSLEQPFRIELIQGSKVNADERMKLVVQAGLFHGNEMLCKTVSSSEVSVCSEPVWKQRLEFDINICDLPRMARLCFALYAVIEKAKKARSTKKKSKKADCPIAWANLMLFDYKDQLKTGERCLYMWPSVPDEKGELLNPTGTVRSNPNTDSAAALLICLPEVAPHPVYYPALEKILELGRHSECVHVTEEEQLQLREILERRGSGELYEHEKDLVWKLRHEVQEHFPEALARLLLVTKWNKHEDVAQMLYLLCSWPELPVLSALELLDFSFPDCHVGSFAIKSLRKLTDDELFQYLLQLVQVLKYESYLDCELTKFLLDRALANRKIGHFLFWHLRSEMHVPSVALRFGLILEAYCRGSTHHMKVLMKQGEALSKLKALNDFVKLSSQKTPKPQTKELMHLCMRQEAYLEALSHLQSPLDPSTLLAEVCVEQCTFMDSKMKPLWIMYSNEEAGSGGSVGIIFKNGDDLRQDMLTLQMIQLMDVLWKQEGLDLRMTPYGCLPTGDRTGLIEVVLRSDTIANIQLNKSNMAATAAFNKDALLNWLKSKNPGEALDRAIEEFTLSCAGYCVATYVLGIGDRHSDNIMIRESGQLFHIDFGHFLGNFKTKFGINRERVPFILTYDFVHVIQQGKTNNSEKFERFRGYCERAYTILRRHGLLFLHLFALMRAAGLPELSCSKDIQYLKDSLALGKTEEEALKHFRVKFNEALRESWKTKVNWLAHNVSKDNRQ

Compound | IC50 (PIK3CG (human)) [nM] | IC50 (PIK3CD (Human)) [nM] | IC50 (PIK3CB (Human)) [nM] | IC50 (PIK3CA (human)) [nM]
C[C@H](Nc1nc(N)nc2cccnc12)c1cc2cccc(-c3ccnnc3)c2c(=O)n1-c1ccccc1 | < 100 | < 100 | – | –
COc1ccc(-c2cccc3cc([C@H](C)Nc4ncnc5cccnc45)n(-c4ccccc4)c(=O)c23)cn1 | < 100 | < 100 | > 10000 | –
C[C@H](Nc1ncnc2ccnn12)c1cc2cccc(Cl)c2c(=O)n1-c1cccc(F)c1 | 100 to 1000 | < 100 | – | > 10000
C[C@H](Nc1ccnc2cccnc12)c1cc2cccc(C(F)(F)F)c2c(=O)n1-c1ccccc1 | < 100 | < 100 | – | > 10000
C[C@H](Nc1ccnc2ccnn12)c1cc2scc(Cl)c2c(=O)n1-c1ccccc1 | < 100 | < 100 | 100 to 1000 | –
C[C@H](Nc1ncnc2cccnc12)c1cc2cccc(-c3ccc(N)nc3)c2c(=O)n1-c1ccccc1 | < 100 | < 100 | > 10000 | –
C[C@H](Nc1ncnc2scnc12)c1cc2scc(C(F)(F)F)c2c(=O)n1-c1ccccc1 | < 100 | < 100 | 100 to 1000 | –
C[C@H](Nc1ncnc2cccnc12)c1cc2cccc(-c3cnn(C)c3)c2c(=O)n1C1CC1 | < 100 | < 100 | – | –
C[C@H](Nc1ccnn2ccnc12)c1cc2cccc(C(F)(F)F)c2c(=O)n1-c1ccccc1 | < 100 | < 100 | 100 to 1000 | –
C[C@H](Nc1ncnc2ccnn12)c1cc2cccc(Cl)c2c(=O)n1-c1ccccc1 | < 100 | < 100 | 100 to 1000 | –
C[C@H](Nc1ncnc(N)c1C#N)c1cc2cccc(C(F)(F)F)c2c(=O)n1-c1cccc(F)c1 | < 100 | < 100 | 100 to 1000 | –
C[C@H](Nc1ccnn2ccnc12)c1cc2cccc(-c3cnn(C)c3)c2c(=O)n1-c1cccc(F)c1 | < 100 | < 100 | > 10000 | –
C[C@H](Nc1ncnc2[nH]cc(F)c12)c1cc2cccc(C(F)(F)F)c2c(=O)n1-c1ccccc1 | < 100 | < 100 | – | –
C[C@H](Nc1ccnc2cccnc12)c1cc2cccc(Cl)c2c(=O)n1-c1cccc(F)c1 | < 100 | < 100 | – | –
C[C@H](Nc1ncnc2cccnc12)c1cc2cccc(C(F)(F)F)c2c(=O)n1-c1ccccc1 | < 100 | < 100 | 100 to 1000 | –
C[C@H](Nc1ccnc2ccnn12)c1cc2cccc(Cl)c2c(=O)n1CCN1CCCC1 | > 10000 | – | – | > 10000
C[C@H](Nc1nc(N)ncc1C#N)c1cc2cccc(C(F)(F)F)c2c(=O)n1-c1cccc(F)c1 | < 100 | < 100 | 100 to 1000 | –
Cc1nn(C)cc1-c1cccc2cc([C@H](C)Nc3ncnc4cccnc34)n(-c3ccccc3)c(=O)c12 | < 100 | < 100 | > 10000 | –
C[C@H](Nc1ccnc2ccnn12)c1cc2cccc(Cl)c2c(=O)n1-c1cccc(F)c1 | < 100 | < 100 | – | –
C[C@H](Nc1nc(N)nc2cccnc12)c1nc2cccc(-c3ccnnc3)c2c(=O)n1-c1ccccc1 | < 100 | < 100 | > 10000 | –

Compound | IC50 (PIK3CG (human)) [nM] | IC50 (PIK3CD (Human)) [nM] | IC50 (PIK3CB (Human)) [nM] | IC50 (PIK3CA (human)) [nM]
C[C@H](Nc1ccnn2ccnc12)c1cc2cccc(Cl)c2c(=O)n1CCN1CCCC1 | > 10000 | – | – | > 10000
C[C@H](Nc1ncnc2cccnc12)c1cc2cccc(Cl)c2c(=O)n1-c1ccccc1 | < 100 | < 100 | 100 to 1000 | –
C[C@H](Nc1ccnn2ccnc12)c1cc2cccc(C(F)(F)F)c2c(=O)n1-c1cccc(F)c1 | < 100 | < 100 | – | –
Cc1cccc2cc([C@H](C)Nc3ncnc4cccnc34)n(-c3cccc(F)c3)c(=O)c12 | < 100 | < 100 | – | –
C[C@H](Nc1ccnc2ccnn12)c1cc2cccc(-c3cnn(C)c3)c2c(=O)n1-c1cccc(F)c1 | 100 to 1000 | < 100 | > 10000 | –
C[C@H](Nc1ncnn2ccnc12)c1cc2cccc(Cl)c2c(=O)n1-c1cccc(F)c1 | < 100 | < 100 | – | –
C[C@H](Nc1ncnc2[nH]cnc12)c1cc2cccc(C(F)(F)F)c2c(=O)n1-c1ccccc1 | < 100 | < 100 | 100 to 1000 | –
COc1ncc(-c2cccc3cc([C@H](C)Nc4ccnn5ccnc45)n(-c4ccccc4)c(=O)c23)cn1 | 100 to 1000 | < 100 | > 10000 | –
C[C@H](Nc1nc(N)nc2scnc12)c1cc2cccc(C(F)(F)F)c2c(=O)n1-c1ccccc1 | < 100 | < 100 | – | –
C[C@H](Nc1ccnn2ccnc12)c1cc2cccc(-c3cnn(C)c3)c2c(=O)n1C1CC1 | 100 to 1000 | < 100 | – | –
C[C@H](Nc1ccnc2cccnc12)c1cc2cccc(-c3cnn(C)c3)c2c(=O)n1-c1ccccc1 | < 100 | < 100 | – | –
C[C@H](Nc1ccnn2ccnc12)c1cc2cccc(-c3cnn(C)c3)c2c(=O)n1-c1ccccc1 | < 100 | < 100 | – | –
COc1ncc(-c2cccc3cc([C@H](C)Nc4ncnc5cccnc45)n(-c4cccc(F)c4)c(=O)c23)cn1 | 100 to 1000 | < 100 | > 10000 | –
C[C@H](Nc1nc(N)nc2cccnc12)c1cc2cccc(-c3cncnc3)c2c(=O)n1-c1ccccc1 | < 100 | < 100 | – | –
C[C@H](Nc1ncnc2ccnn12)C1=Cc2cccc(Cl)c2C(C(=O)N2CCOCC2)N1 (stereo partly specified) | – | 100 to 1000 | – | > 10000
C[C@H](Nc1ncnc2cccnc12)c1cc2cccc(C(F)(F)F)c2c(=O)n1-c1cccc(F)c1 | < 100 | < 100 | – | –
C[C@H](Nc1ncnc2cccnc12)c1cc2cccc(-c3cnn(C)c3)c2c(=O)n1-c1cccc(F)c1 | < 100 | < 100 | > 10000 | –
C[C@H](Nc1ccnc2ccnn12)c1cc2cccc(-c3cnn(C)c3)c2c(=O)n1-c1ccccc1 | < 100 | < 100 | – | –
C[C@H](Nc1ncnn2ccnc12)c1cc2cccc(Cl)c2c(=O)n1-c1ccccc1 | < 100 | < 100 | 100 to 1000 | –

Now from value to compound:

IC50 (PIK3CG (human)) [nM] | IC50 (PIK3CD (Human)) [nM] | IC50 (PIK3CB (Human)) [nM] | IC50 (PIK3CA (human)) [nM] | Compound
< 100 | < 100 | – | – | C[C@H](Nc1ncnc2cccnc12)c1cc2c(F)cccc2c(=O)n1-c1ccccc1
< 100 | < 100 | 100 to 1000 | – | C[C@H](Nc1ccnn2ccnc12)c1cc2cccc(Cl)c2c(=O)n1-c1cccc(F)c1
< 100 | < 100 | – | – | C[C@H](Nc1ncnc2cccnc12)c1cc2ccc(F)cc2c(=O)n1-c1ccccc1
– | 100 to 1000 | > 10000 | – | C[C@H](Nc1ncnc2cccnc12)c1cc2cc(F)ccc2c(=O)n1-c1ccccc1
< 100 | < 100 | – | > 10000 | C[C@H](Nc1ccnc2ccnn12)c1cc2cccc(C(F)(F)F)c2c(=O)n1-c1cccc(F)c1
< 100 | < 100 | 100 to 1000 | – | C[C@H](Nc1ccnc2ccnn12)c1cc2cccc(Cl)c2c(=O)n1-c1ccccc1
– | < 100 | – | – | C[C@H](Nc1ccnc2ccnn12)c1cc2cccc(-c3cnn(C)c3)c2c(=O)n1C1CC1
100 to 1000 | < 100 | 100 to 1000 | – | C[C@H](Nc1ccnc2ccnn12)c1cc2cccc(Cl)c2c(=O)n1C1CC1
< 100 | < 100 | 100 to 1000 | – | C[C@H](Nc1ncnc2cccnc12)c1cc2scc(Cl)c2c(=O)n1-c1ccccc1
< 100 | < 100 | 100 to 1000 | – | C[C@H](Nc1ncnc2scnc12)c1cc2cccc(C(F)(F)F)c2c(=O)n1-c1cccc(F)c1
< 100 | < 100 | 100 to 1000 | – | C[C@H](Nc1ccnc2scnc12)c1cc2cccc(C(F)(F)F)c2c(=O)n1-c1ccccc1
< 100 | < 100 | – | – | CNc1nc(N[C@@H](C)c2cc3cccc(Cl)c3c(=O)n2-c2ccccc2)c2ncccc2n1
< 100 | < 100 | 100 to 1000 | – | C[C@H](Nc1ccnc2cccnc12)c1cc2cccc(Cl)c2c(=O)n1-c1ccccc1
< 100 | < 100 | 100 to 1000 | – | C[C@H](Nc1ncnn2ccnc12)c1cc2cccc(C(F)(F)F)c2c(=O)n1-c1ccccc1
< 100 | < 100 | 100 to 1000 | – | C[C@H](Nc1ccnc2ccnn12)c1cc2cccc(C(F)(F)F)c2c(=O)n1-c1ccccc1
< 100 | < 100 | > 10000 | – | C[C@H](Nc1nc(N)nc2cccnc12)c1cc2cccc(-c3cnn(C)c3)c2c(=O)n1-c1cccc(F)c1
< 100 | < 100 | > 10000 | – | C[C@H](Nc1nc(N)nc2cccnc12)c1cc2cccc(-c3ccnnc3)c2c(=O)n1-c1cccc(F)c1
< 100 | < 100 | 100 to 1000 | – | C[C@H](Nc1nc(N)ncc1C#N)c1cc2cccc(C(F)(F)F)c2c(=O)n1-c1ccccc1
< 100 | < 100 | > 10000 | – | C[C@H](Nc1nc(N)nc2cccnc12)c1cc2cccc(-c3cnn(C)c3)c2c(=O)n1-c1ccccc1
< 100 | < 100 | 100 to 1000 | – | C[C@H](Nc1nc(N)nc2[nH]cnc12)c1cc2cccc(C(F)(F)F)c2c(=O)n1-c1cccc(F)c1
< 100 | < 100 | 100 to 1000 | – | C[C@H](Nc1ncnc2[nH]cc(C(N)=O)c12)c1cc2cccc(C(F)(F)F)c2c(=O)n1-c1ccccc1
< 100 | < 100 | 100 to 1000 | – | C[C@H](Nc1nc(N)nc2cccnc12)c1cc2cccc(C(F)(F)F)c2c(=O)n1-c1ccccc1
100 to 1000 | < 100 | 100 to 1000 | – | C[C@H](Nc1ccnn2ccnc12)c1cc2cccc(Cl)c2c(=O)n1C1CC1
< 100 | < 100 | 100 to 1000 | – | C[C@H](Nc1ccnn2ccnc12)c1cc2scc(Cl)c2c(=O)n1-c1ccccc1
100 to 1000 | < 100 | > 10000 | – | Cc1cc(-c2cccc3cc([C@H](C)Nc4ncnc5cccnc45)n(-c4ccccc4)c(=O)c23)cnc1C
< 100 | < 100 | > 10000 | – | Cc1ncc(-c2cccc3cc([C@H](C)Nc4nc(N)nc5cccnc45)n(-c4cccc(F)c4)c(=O)c23)cn1

Source: the Kinase Knowledgebase extract (Sharma et al. 2016)
